{"source": "patent US20240293579A1", "about": "“Composition Comprising Trim31 and Rhbdf2 for Treatment of NAFLD/NASH” (CHONGQING MEIPULAN TECHNOLOGY CO., LTD, priority 2021, published 2024)", "molecules": {"B1": {"name": "human TRIM31, full-length wild type, Flag-tagged (TRIM31-Flag WT) (protein)", "chain": "MASGQFVNKLQEEVICPICLDILQKPVTIDCGHNFCLKCITQIGETSCGFFKCPLCKTSVRKNAIRFNSLLRNLVEKIQALQASEVQSKRKEATCPRHQEMFHYFCEDDGKFLCFVCRESKDHKSHNVSLIEEAAQNYQGQIQEQIQVLQQKEKETVQVKAQGVHRVDVFTDQVEHEKQRILTEFELLHQVLEEEKNFLLSRIYWLGHEGTEAGKHYVASTEPQLNDLKKLVDSLKTKQNMPPRQLLEDIKVVLCRSEEFQFLNPTPVPLELEKKLSEAKSRHDSITGSLKKFKDQLQADRKKDENRFFKSMNKNDMKSWGLLQKNNHKMNKTSEPGSSSAGGRTTSGPPNHHSSAPSHSLFRASSAGKVTFPVCLLASYDEISGQGASSQDTKTFDVALSEELHAALSEWLTAIRAWFCEVPSS"}}, "key": {"[1]": {"test_system": "TRIM31 mRNA", "assay": "TRIM31 mRNA expression by RT-qPCR in PA/OA-induced L02 cells", "type": "cell-based, human", "settings": "100 μmol/L compound, PA/OA-induced L02 cells, RT-qPCR; for fold induction at 100 µM: Homo sapiens, read-out: Qdrug/Qctrl (TRIM31 mRNA expression level, drug group divided by control group)", "protocol": "Palmitic acid/oleic acid (PA/OA) was used to induce the decrease of TRIM31 mRNA expression in human hepatocyte L02 cells. The cells were divided into control group and drug group. The drug group was treated with a concentration of 100 μmol/L compound, and the expression level of TRIM31 mRNA was detected by RT-qPCR. The expression level of TRIM31 mRNA in the drug group divided by that in the control group (Qdrug/Qctrl) was used to evaluate the ability of the compounds to promote TRIM31 expression. […]"}, "[2]": {"test_system": "Mice with a NASH phenotype (THTG-HFHF)", "assay": "Carminic acid in mice with a NASH phenotype (THTG-HFHF), liver mRNA and protein levels", "type": "in vivo", "settings": "16 weeks", "description": "(§1) To further investigate the protective effects of Trim31 on liver steatosis, a nonalcoholic steatohepatitis (NASH) mice model was established in accordance with previous reports (Xu Min-Xuan,Tan Jun, et al., Journal of Hazardous Materials, 2020, 400: 123158). The THTG mice were then fed with HFHF diet (14% protein, 42% fat, 44% carbohydrates, 0.2% cholesterol and with a total of 42 g/L of carbohydreate mixed in drinking water at a ratio of 55% fructose and 45% sucrose by weight) for 16 weeks to produce phenotype of NASH. Also, the NTG mice used in this design as controls and were synchronously allowed to ad libitum access to this diet for 16 weeks.\n(§2) Based on the effective protective effect of Trim31 in NAFLD, we accordingly investigated the therapeutic feasibility and effect of targeting the Trim31-Rhbdf2-MAP3K7 pathway in the development and progression of NASH. The THTG mice were then fed with an HFHF diet containing 14% protein, 42% fat, 44% carbohydrates, and 0.2% cholesterol and with a total of 42 g/L of carbohydrate mixed in drinking water at a ratio of 55% fructose and 45% sucrose by weight, for 16 weeks to generate mice with a NASH phenotype (THTG-HFHF).\nMice with a NASH phenotype (THTG-HFHF) were constructed according to the protocol described in Example 10. The control group (Ctrl), NASH-THTG group (Fru), low dose group (CAL, 0.5% CA+Fru), high dose group (CAH, 1% CA+Fru) were set up. The drug group was treated with 0.5% and 1% carminic acid (CA) by gavage."}, "[3]": {"test_system": "Mice with a NASH phenotype (THTG-HFHF)", "assay": "Fisetin in mice with a NASH phenotype (THTG-HFHF), liver mRNA levels", "type": "in vivo", "settings": "16 weeks", "description": "as §1, §2\nMice with a NASH phenotype (THTG-HFHF) were constructed according to the protocol described in Example 10. A control group (Ctrl), a NASH group (THTG), and three drug groups (FIS) were set up. The three drug groups (FIS) were treated with 20 mg/kg, 40 mg/kg and 80 mg/kg fisetin (FIS) by gavage."}, "[4]": {"test_system": "Mice with a NASH phenotype (THTG-HFHF)", "assay": "Betacyanin in mice with a NASH phenotype (THTG-HFHF), liver protein expression", "type": "in vivo", "settings": "0.2 g/kg mixed with feed, 16 weeks", "description": "as §1, §2\nMice with a NASH phenotype (THTG-HFHF) were constructed according to the protocol described in Example 10. A control group (Ctrl), a NASH group (THTG), and a drug group (BCN) were set up. The drug group was fed with 0.2 g/kg betacyanin (BCN) mixed with feed."}, "[5]": {"biological_target": "T1, human RHBDF2, full-length, HA-tagged (RHBDF2-HA), Q6PJF5", "T1 chain": "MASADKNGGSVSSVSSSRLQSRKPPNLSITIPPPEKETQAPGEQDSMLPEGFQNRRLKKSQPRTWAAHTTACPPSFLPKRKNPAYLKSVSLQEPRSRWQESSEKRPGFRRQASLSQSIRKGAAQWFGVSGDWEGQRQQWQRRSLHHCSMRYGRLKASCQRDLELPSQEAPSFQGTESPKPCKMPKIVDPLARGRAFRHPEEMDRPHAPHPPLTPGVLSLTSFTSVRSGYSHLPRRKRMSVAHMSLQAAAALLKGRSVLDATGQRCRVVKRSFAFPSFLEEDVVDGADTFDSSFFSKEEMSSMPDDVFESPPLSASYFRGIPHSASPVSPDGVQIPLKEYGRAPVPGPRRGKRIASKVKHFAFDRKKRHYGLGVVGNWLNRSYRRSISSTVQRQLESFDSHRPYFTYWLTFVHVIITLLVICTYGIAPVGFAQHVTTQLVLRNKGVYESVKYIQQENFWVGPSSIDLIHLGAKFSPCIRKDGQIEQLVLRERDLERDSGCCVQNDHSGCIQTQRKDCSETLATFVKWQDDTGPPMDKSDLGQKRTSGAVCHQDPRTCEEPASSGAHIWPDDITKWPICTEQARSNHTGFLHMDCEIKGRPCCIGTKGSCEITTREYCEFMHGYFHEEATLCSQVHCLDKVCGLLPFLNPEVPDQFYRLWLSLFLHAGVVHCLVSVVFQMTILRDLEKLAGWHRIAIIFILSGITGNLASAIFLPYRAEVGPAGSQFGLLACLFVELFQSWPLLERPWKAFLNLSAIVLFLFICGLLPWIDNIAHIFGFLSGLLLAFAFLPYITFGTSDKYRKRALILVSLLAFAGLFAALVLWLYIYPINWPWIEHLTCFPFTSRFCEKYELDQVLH"}}}
{"molecule": "Cc1c(C(=O)O)c(O)cc2c1C(=O)c1c(O)c([C@@H]3O[C@H](CO)[C@@H](O)[C@H](O)[C@H]3O)c(O)c(O)c1C2=O", "note": "[Carminic acid]", "values": [{"measurement": "fold induction at 100 µM", "setting": "[1]", "result": 2.78}, {"measurement": "Collagen I mRNA level in liver", "setting": "[2]; 0.5% and 1% CA by gavage", "result": "significantly decreased"}, {"measurement": "Keap1 protein in liver", "setting": "[2]; 0.5% and 1% CA by gavage", "result": "significantly decreased"}, {"measurement": "MMP-9 mRNA level in liver", "setting": "[2]; 0.5% and 1% CA by gavage", "result": "significantly decreased"}, {"measurement": "TGF-β1 mRNA level in liver", "setting": "[2]; 0.5% and 1% CA by gavage", "result": "significantly decreased"}, {"measurement": "TRIM31 protein expression in liver", "setting": "[2]; 0.5% and 1% CA by gavage", "result": "significantly increased"}, {"measurement": "α-SMA mRNA level in liver", "setting": "[2]; 0.5% and 1% CA by gavage", "result": "significantly decreased"}, {"measurement": "liver fibrosis and inflammation", "setting": "[2]; gavage", "result": "effectively alleviated"}, {"measurement": "these indexes (fibrosis genes, Keap1, TRIM31) versus control group", "setting": "[2]; high dose group (CAH, 1% CA)", "result": "close to the normal level of the control group"}]}
{"molecule": "O=c1c(O)c(-c2ccc(O)c(O)c2)oc2cc(O)ccc12", "note": "[Fisetin]", "values": [{"measurement": "Collagen I mRNA level in liver", "setting": "[3]; 20, 40 and 80 mg/kg by gavage", "result": "significantly decreased"}, {"measurement": "Fibronectin mRNA level in liver", "setting": "[3]; 20, 40 and 80 mg/kg by gavage", "result": "significantly decreased"}, {"measurement": "TGF-β1 mRNA level in liver", "setting": "[3]; 20, 40 and 80 mg/kg by gavage", "result": "significantly decreased"}, {"measurement": "TRIM31 mRNA level in liver", "setting": "[3]; 20, 40 and 80 mg/kg by gavage", "result": "significantly increased"}, {"measurement": "α-SMA mRNA level in liver", "setting": "[3]; 20, 40 and 80 mg/kg by gavage", "result": "significantly decreased"}, {"measurement": "liver fibrosis and inflammation", "setting": "[3]; gavage", "result": "significantly alleviated"}, {"measurement": "these indexes (fibrosis gene and TRIM31 mRNA levels) versus control group", "setting": "[3]; high dose group (80 mg/kg)", "result": "close to the normal level of the control group"}, {"measurement": "fold induction at 100 µM", "setting": "[1]", "result": 3.27}]}
{"molecule": "Betacyanin", "values": [{"measurement": "Collagen I protein expression level in liver", "setting": "[4]", "result": "significantly reduced"}, {"measurement": "Keap1 protein expression level in liver", "setting": "[4]", "result": "significantly reduced"}, {"measurement": "TGF-β1 protein expression level in liver", "setting": "[4]", "result": "significantly reduced"}, {"measurement": "TRIM31 protein expression in liver", "setting": "[4]", "result": "increased"}, {"measurement": "liver fibrosis and inflammation", "setting": "[4]", "result": "effectively alleviated"}, {"measurement": "Qdrug/Qctrl (TRIM31 mRNA expression level, drug group divided by control group)", "setting": "[1]", "result": 3.14, "unit": "fold"}]}
{"molecule": "B1", "values": [{"measurement": "polyubiquitination of Rhbdf2 with single-lysine ubiquitin constructs (K48O, K63O, K33O, K6O, K29O, K27O)", "setting": "[5]", "result": "Trim31-mediated increase in polyubiquitination of Rhbdf2 could be greatly observed in the presence of K48-loading vector, but not with other vectors"}]}
